Assay results published in patent publication US7008905B2, “Method of combating undesired plant growth on cereals” (BASF Aktiengesellschaft, priority 2000, dated 2006).

How the values were obtained:
Assay type in all cases: in vivo
Lamium purpureum [1] = assay: Post-emergence test, weed control; conditions: 2–4 weeks after treatment, rating 0-100 (100=death), Table 5
Method: (§1) These acetone solutions are diluted with water and the resulting formulations applied at dosage levels equivalent of about 0.030 to 0.240 kg per hectare of test compound per pot. After spraying the plants are placed an greenhouse benches and are cared for in the usual manner, commensurate with conventional greenhouse practices. From 2 to 4 weeks after treatment, the seedling plants are examined and rated according to the rating system provided above. A rating 0 indicates growth as untreated control, a rating 100 indicates death.

Galium aparine [2] = assay: Post-emergence test, weed control; conditions: 2–4 weeks after treatment, rating 0-100 (100=death), Table 5
Method: as §1

Stellaria media [3] = assay: Post-emergence test, weed control; conditions: 2–4 weeks after treatment, rating 0-100 (100=death), Table 5
Method: as §1

VIOAR = assay: Post-emergence test, weed control; conditions: 2–4 weeks after treatment, rating 0-100 (100=death), Table 5
Method: as §1

Polygonum convolvulus [4] = assay: Post-emergence test, weed control; conditions: 2–4 weeks after treatment, rating 0-100 (100=death), Table 5
Method: as §1

Setaria viridis [5] = assay: Post-emergence test, weed control; conditions: 2–4 weeks after treatment, rating 0-100 (100=death), Table 5
Method: as §1

Matricaria inodora [6] = assay: Post-emergence test, weed control; conditions: 2–4 weeks after treatment, rating 0-100 (100=death), Table 5
Method: as §1

Lolium perenne = assay: Pre-emergence test, weed control; conditions: 3 weeks after treatment, rating 0-100 (100=death), Table 1
In short: (§2)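 Test compounds in acetone with 0.4% TRITON X-155, diluted with water, were sprayed onto freshly sown horticultural loam at 15, 30, 60, 120 or 240 g a.i./ha in 900 L/ha. Visual assessment three weeks after spraying, on a 0–100 scale (0 = as untreated control, 100 = death).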

Lamium purpureum [7] = assay: Pre-emergence test, weed control; conditions: 3 weeks after treatment, rating 0-100 (100=death), Table 1
In short: as §2

Apera spica-venti = assay: Pre-emergence test, weed control; conditions: 3 weeks after treatment, rating 0-100 (100=death), Table 1
In short: as §2

Galium aparine [8] = assay: Pre-emergence test, weed control; conditions: 3 weeks after treatment, rating 0-100 (100=death), Table 1
In short: as §2

Stellaria media [9] = assay: Pre-emergence test, weed control; conditions: 3 weeks after treatment, rating 0-100 (100=death), Table 1
In short: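 Scores from 0 (growth like untreated control) to 100 (death) were assigned by eye three weeks post-spray, with 10 units approximating a 10% change in effect. Treatment was applied to freshly sown loam at 15 to 240 g active material per hectare.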

Alopecurus myosuroides = assay: Pre-emergence test, weed control; conditions: 3 weeks after treatment, rating 0-100 (100=death), Table 1
In short: as §2

Polygonum convolvulus [10] = assay: Pre-emergence test, weed control; conditions: 3 weeks after treatment, rating 0-100 (100=death), Table 1
In short: as §2

Setaria viridis [11] = assay: Pre-emergence test, weed control; conditions: 3 weeks after treatment, rating 0-100 (100=death), Table 1
In short: as §2

Matricaria inodora [12] = assay: Pre-emergence test, weed control; conditions: 3 weeks after treatment, rating 0-100 (100=death), Table 1
In short: as §2

Veronica persica = assay: Pre-emergence test, weed control; conditions: 3 weeks after treatment, rating 0-100 (100=death), Table 1
In short: as §2

Poa annua = assay: Pre-emergence test, weed control; conditions: 3 weeks after treatment, rating 0-100 (100=death), Table 1
In short: as §2

[13] = test system: Triticum aestivum variety “Monopol”; assay: Post-emergence test, selectivity; conditions: 2–4 weeks after treatment, rating 0-100 (100=death), Table 6
Method: as §1

[14] = test system: Triticum aestivum variety “Kanzler”; assay: Post-emergence test, selectivity; conditions: 2–4 weeks after treatment, rating 0-100 (100=death), Table 6
Method: as §1

CCc1cc(Oc2cccc(C(F)(F)F)c2)nc(-c2ccc(C(F)(F)F)cc2)n1 [REF-3]
LAMPU weed control rating (Lamium purpureum [1]; 0.030 kg/ha): 93
LAMPU weed control rating (Lamium purpureum [1]; 0.060 kg/ha): 93
LAMPU weed control rating (Lamium purpureum [1]; 0.120 kg/ha): 93
LAMPU weed control rating (Lamium purpureum [1]; 0.240 kg/ha): 93
GALAP weed control rating (Galium aparine [2]; 0.030 kg/ha): 90
GALAP weed control rating (Galium aparine [2]; 0.060 kg/ha): 90
GALAP weed control rating (Galium aparine [2]; 0.120 kg/ha): 93
GALAP weed control rating (Galium aparine [2]; 0.240 kg/ha): 93
STEME weed control rating (Stellaria media [3]; 0.030 kg/ha): 65
STEME weed control rating (Stellaria media [3]; 0.060 kg/ha): 85
STEME weed control rating (Stellaria media [3]; 0.120 kg/ha): 85
STEME weed control rating (Stellaria media [3]; 0.240 kg/ha): 92
VIOAR weed control rating (VIOAR; 0.030 kg/ha): 90
VIOAR weed control rating (VIOAR; 0.060 kg/ha): 90
VIOAR weed control rating (VIOAR; 0.120 kg/ha): 90
VIOAR weed control rating (VIOAR; 0.240 kg/ha): 93
POLCO weed control rating (Polygonum convolvulus [4]; 0.060 kg/ha): 35
POLCO weed control rating (Polygonum convolvulus [4]; 0.120 kg/ha): 55
POLCO weed control rating (Polygonum convolvulus [4]; 0.240 kg/ha): 80
SETVI weed control rating (Setaria viridis [5]; 0.030 kg/ha): 95
SETVI weed control rating (Setaria viridis [5]; 0.060 kg/ha): 98
SETVI weed control rating (Setaria viridis [5]; 0.120 kg/ha): 99
SETVI weed control rating (Setaria viridis [5]; 0.240 kg/ha): 100
MATIN weed control rating (Matricaria inodora [6]; 0.030 kg/ha): 65
MATIN weed control rating (Matricaria inodora [6]; 0.060 kg/ha): 80
MATIN weed control rating (Matricaria inodora [6]; 0.120 kg/ha): 85
MATIN weed control rating (Matricaria inodora [6]; 0.240 kg/ha): 85
LOLPE weed control rating (Lolium perenne; 0.015 kg/ha): 90
LOLPE weed control rating (Lolium perenne; 0.030 kg/ha): 98
LOLPE weed control rating (Lolium perenne; 0.060 kg/ha): 99
LOLPE weed control rating (Lolium perenne; 0.120 kg/ha): 99
LOLPE weed control rating (Lolium perenne; 0.240 kg/ha): 100
LAMPU weed control rating (Lamium purpureum [7]; 0.015 kg/ha): 100
LAMPU weed control rating (Lamium purpureum [7]; 0.030 kg/ha): 100
LAMPU weed control rating (Lamium purpureum [7]; 0.060 kg/ha): 100
LAMPU weed control rating (Lamium purpureum [7]; 0.120 kg/ha): 100
LAMPU weed control rating (Lamium purpureum [7]; 0.240 kg/ha): 100
APESV weed control rating (Apera spica-venti; 0.015 kg/ha): 100
APESV weed control rating (Apera spica-venti; 0.030 kg/ha): 100
APESV weed control rating (Apera spica-venti; 0.060 kg/ha): 100
APESV weed control rating (Apera spica-venti; 0.120 kg/ha): 100
APESV weed control rating (Apera spica-venti; 0.240 kg/ha): 100
GALAP weed control rating (Galium aparine [8]; 0.060 kg/ha): 50
GALAP weed control rating (Galium aparine [8]; 0.120 kg/ha): 85
GALAP weed control rating (Galium aparine [8]; 0.240 kg/ha): 97
STEME weed control rating (Stellaria media [9]; 0.015 kg/ha): 98
STEME weed control rating (Stellaria media [9]; 0.030 kg/ha): 100
STEME weed control rating (Stellaria media [9]; 0.060 kg/ha): 100
STEME weed control rating (Stellaria media [9]; 0.120 kg/ha): 100
STEME weed control rating (Stellaria media [9]; 0.240 kg/ha): 100
ALOMY weed control rating (Alopecurus myosuroides; 0.015 kg/ha): 55
ALOMY weed control rating (Alopecurus myosuroides; 0.030 kg/ha): 98
ALOMY weed control rating (Alopecurus myosuroides; 0.060 kg/ha): 98
ALOMY weed control rating (Alopecurus myosuroides; 0.120 kg/ha): 100
ALOMY weed control rating (Alopecurus myosuroides; 0.240 kg/ha): 100
POLCO weed control rating (Polygonum convolvulus [10]; 0.015 kg/ha): 25
POLCO weed control rating (Polygonum convolvulus [10]; 0.030 kg/ha): 70
POLCO weed control rating (Polygonum convolvulus [10]; 0.060 kg/ha): 80
POLCO weed control rating (Polygonum convolvulus [10]; 0.120 kg/ha): 100
POLCO weed control rating (Polygonum convolvulus [10]; 0.240 kg/ha): 100
SETVI weed control rating (Setaria viridis [11]; 0.015 kg/ha): 100
SETVI weed control rating (Setaria viridis [11]; 0.030 kg/ha): 100
SETVI weed control rating (Setaria viridis [11]; 0.060 kg/ha): 100
SETVI weed control rating (Setaria viridis [11]; 0.120 kg/ha): 100
SETVI weed control rating (Setaria viridis [11]; 0.240 kg/ha): 100
MATIN weed control rating (Matricaria inodora [12]; 0.015 kg/ha): 99
MATIN weed control rating (Matricaria inodora [12]; 0.030 kg/ha): 99
MATIN weed control rating (Matricaria inodora [12]; 0.060 kg/ha): 99
MATIN weed control rating (Matricaria inodora [12]; 0.120 kg/ha): 100
MATIN weed control rating (Matricaria inodora [12]; 0.240 kg/ha): 100
VERPE weed control rating (Veronica persica; 0.015 kg/ha): 100
VERPE weed control rating (Veronica persica; 0.030 kg/ha): 100
VERPE weed control rating (Veronica persica; 0.060 kg/ha): 100
VERPE weed control rating (Veronica persica; 0.120 kg/ha): 100
VERPE weed control rating (Veronica persica; 0.240 kg/ha): 100
POAAN weed control rating (Poa annua; 0.015 kg/ha): 100
POAAN weed control rating (Poa annua; 0.030 kg/ha): 100
POAAN weed control rating (Poa annua; 0.060 kg/ha): 100
POAAN weed control rating (Poa annua; 0.120 kg/ha): 100
POAAN weed control rating (Poa annua; 0.240 kg/ha): 100
TRZAWM rating (Selectivity) ([13]; 0.03 kg/ha): 10
TRZAWM rating (Selectivity) ([13]; 0.06 kg/ha): 15
TRZAWM rating (Selectivity) ([13]; 0.12 kg/ha): 22
TRZAWM rating (Selectivity) ([13]; 0.24 kg/ha): 30
TRZAWK rating (Selectivity) ([14]; 0.03 kg/ha): 12
TRZAWK rating (Selectivity) ([14]; 0.06 kg/ha): 15
TRZAWK rating (Selectivity) ([14]; 0.12 kg/ha): 25
TRZAWK rating (Selectivity) ([14]; 0.24 kg/ha): 35
